Test results: US11091482B2, “Isoxazolyl-carbonyloxy azabicyclo[3.2.1]octanyl compounds as FXR activators” (ARDELYX, INC., priority 2016, dated 2021)

How the values were obtained:
[1] = molecular target: ligand binding domain of human FXR (Homo sapiens (Human), UniProt Q96RI1); experiment: FXR ligand binding assay (LanthaScreen FRET); settings: for Emax: read-out: % Efficacy; for FXR pEC50 / % Efficacy: FXR ligand binding assay; for FXR pEC50: -log EC50; for % Efficacy: extent of activation relative to GW4064;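 for all read-outs here: TR-FRET coactivator recruitment: ligand-induced binding of fluorescein-labelled SRC2-2 peptide to GST-tagged FXR LBD detected via Tb anti-GST antibody, serial compound dilutions, 3-parameter logistic fit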
Description: The affinity of FXR ligands for the ligand binding domain of FXR was determined using a commercially available human FXR ligand binding assay (LanthaScreen, Thermofisher Cat #PV4833). […] Binding of FXR ligands to the FXR ligand binding domain promotes binding of the fluorescein-labelled SRC2-2 peptide. This causes a FRET signal between the terbium-labelled anti-GST antibody and the fluorescein-labelled SRC peptide which are both bound to the FXR ligand binding domain.
Test compounds are dissolved in DMSO and a 3-fold serial dilution series is generated, then further diluted into assay buffer. The compounds are mixed with 5 nM GST-tagged FXR ligand binding domain, 5 nM Tb-labelled anti-GST antibody and 500 nM fluorcscein-labelled SRC2-2 peptide in a pH 7.4 buffer. The reaction is incubated at room temperature for 1 hour, then the FRET signal is measured as the ratio of the 520 nm/495 nm emission following excitation at 340 nm. The change in FRET signal is plotted against the test article concentration and fit to a 3-parameter logistical equation.

[2] = molecular target: human Farnesoid X receptor ligand-binding domain/Gal4 DNA binding domain chimera (Homo sapiens (Human), UniProt Q96RI1); experiment: Cell-based FXR beta-lactamase reporter assay (FXR-UAS-bla HEK 293T cells); settings: for Emax: HEK-293T, read-out: % Efficacy; for EC50 / FXR pEC50 / % Efficacy: cellular FXR beta-lactamase reporter assay; for EC50 / FXR pEC50: -log EC50; for EC50: read-out: FXR pEC50 (converted); for % Efficacy: extent of activation relative to GW4064
Procedure, shortened: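 Stable FXR-UAS-bla HEK 293T cells in phenol red-free DMEM with 2% charcoal-stripped FBS were exposed to 3-fold serial dilutions of compound. Beta-lactamase reporter activity was read by CCF4 FRET loss, exciting at 409 nm with blue emission at 447 nm. The FRET change versus concentration was fit to a 3-parameter logistic equation.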

Sequence of human Farnesoid X receptor ligand-binding domain/Gal4 DNA binding domain chimera (Q96RI1 262-486, change not shown): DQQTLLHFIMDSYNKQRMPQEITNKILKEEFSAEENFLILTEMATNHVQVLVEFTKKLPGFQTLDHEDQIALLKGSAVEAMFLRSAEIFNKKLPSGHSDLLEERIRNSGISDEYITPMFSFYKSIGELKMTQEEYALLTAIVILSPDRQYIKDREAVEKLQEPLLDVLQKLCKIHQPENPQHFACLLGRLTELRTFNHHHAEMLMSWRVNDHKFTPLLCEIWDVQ
Sequence of ligand binding domain of human FXR (Q96RI1 262-486): as the sequence (Q96RI1 262-486, change not shown) above

Row | SMILES | Emax [1] [%] | Emax [2] [%] | EC50 [2] [µM] | FXR pEC50 [1] | % Efficacy [1] [%] | FXR pEC50 [2] | % Efficacy [2] [%]
1 | COc1cc2nc(N3[C@@H]4CC[C@H]3C[C@@H](OC(=O)c3c(-c5c(Cl)cccc5Cl)noc3C3CC3)C4)sc2cc1C(=O)O [Compound I-7, 2-[(1R,3R,5S)-3-[5-cyclopropyl-3-(2,6-dichlorophenyl)-1,2-oxazole-4-carbonyloxy]-8-azabicyclo[3.2.1]octan-8-yl]-5-methoxy-1,3-benzothiazole-6-carboxylic Acid] | 125 | 110 | 0.00794 |  |  |  | 
2 | Cc1onc(-c2c(Cl)cccc2Cl)c1C(=O)O[C@H]1C[C@H]2CC[C@@H](C1)N2c1nc2c(F)cc(C(=O)O)cc2s1 [Compound I-23, 2-[(1R,3S,5S)-3-[3-(2,6-dichlorophenyl)-5-methyl-1,2-oxazole-4-carbonyloxy]-8-azabicyclo[3.2.1]octan-8-yl]-4-fluoro-1,3-benzothiazole-6-carboxylic Acid] |  |  |  | 7.1 | 37 | 6.8 | 100
3 | O=C(O)c1ccc(N2[C@@H]3CC[C@H]2C[C@@H](OC(=O)c2c(-c4c(Cl)cccc4Cl)noc2C2CC2)C3)c(C(F)(F)F)c1 [Compound I-38, 4-[(1R,3R,5S)-3-[5-cyclopropyl-3-(2,6-dichlorophenyl)-1,2-oxazole-4-carbonyloxy]-8-azabicyclo[3.2.1]octan-8-yl]-3-(trifluoromethyl)benzoic acid] | 80 | 112 | 0.0794 | 6.6 |  |  | 
4 | O=C(O)c1cc(OC(F)(F)F)c2nc(N3[C@@H]4CC[C@H]3C[C@@H](OC(=O)c3c(C56CCC(CC5)CC6)noc3C3CC3)C4)sc2c1 [Compound I-57, 2-[(1R,3R,5S)-3-(3-{bicyclo[2.2.2]octan-1-yl}-5-cyclopropyl-1,2-oxazole-4-carbonyloxy)-8-azabicyclo[3.2.1]octan-8-yl]-4-(trifluoromethoxy)-1,3-benzothiazole-6-carboxylic Acid] | 26 | 33 | 0.398 |  |  |  | 
5 | CC(C)(C)c1onc(-c2c(Cl)cccc2Cl)c1C(=O)OC1C[C@H]2CC[C@@H](C1)N2c1nc2c(F)cc(C(=O)O)cc2s1 (single isomer, unassigned) [Compound I-25] |  |  |  | 7.2 |  | 7.6 | 
6 | O=C(O)c1cc(F)c2nc(N3[C@@H]4CC[C@H]3C[C@@H](OC(=O)c3c(-c5ccccc5OC(F)(F)F)noc3C3CC3)C4)sc2c1 [Compound I-14, 2-[(1R,3R,5S)-3-{5-cyclopropyl-3-[2-(trifluoromethoxy)phenyl]-1,2-oxazole-4-carbonyloxy}-8-azabicyclo[3.2.1]octan-8-yl]-4-fluoro-1,3-benzothiazole-6-carboxylic Acid] |  |  |  | 7.6 | 147 | 8.1 | 116
7 | CS(=O)(=O)NC(=O)c1cc(F)c2nc(N3[C@@H]4CC[C@H]3C[C@@H](OC(=O)c3c(-c5c(Cl)cccc5Cl)noc3C3CC3)C4)sc2c1 [Compound I-6, (1R,3R,5S)-8-[4-fluoro-6-(methanesulfonylcarbamoyl)-1,3-benzothiazol-2-yl]-8-azabicyclo[3.2.1]octan-3-yl 5-cyclopropyl-3-(2,6-dichlorophenyl)-1,2-oxazole-4-carboxylate] | 110 | 109 | 0.0158 |  |  |  | 
8 | N#Cc1ccc(N2[C@@H]3CC[C@H]2C[C@@H](OC(=O)c2c(-c4c(Cl)cccc4Cl)noc2C2CC2)C3)cc1O [Compound I-53, (1R,3R,5S)-8-(4-cyano-3-hydroxyphenyl)-8-azabicyclo[3.2.1]octan-3-yl 5-cyclopropyl-3-(2,6-dichlorophenyl)-1,2-oxazole-4-carboxylate] | 58 | 81 | 0.251 |  |  |  | 
9 | CCCCCS(=O)(=O)NC(=O)c1ccc(N2[C@@H]3CC[C@H]2C[C@@H](OC(=O)c2c(-c4c(Cl)cccc4Cl)noc2C2CC2)C3)cc1 [Compound I-46, (1R,3R,5S)-8-{4-[(pentane-1-sulfonyl)carbamoyl]phenyl}-8-azabicyclo[3.2.1]octan-3-yl 5-cyclopropyl-3-(2,6-dichlorophenyl)-1,2-oxazole-4-carboxylate] |  |  |  | 8.2 |  | 8.5 | 110
